In article PMC7999702, “Bioactive Bromotyrosine Derivatives from the Pacific Marine Sponge Suberea clavata (Pulitzer-Finali, 1982)” (Marine Drugs, 2021):
Values after ≈ are worked out from the molar mass of the structure shown. Like-named read-outs stand apart in the source and are kept apart here.

How the values were obtained:
[1] = tested on: Vibrio aesturianus; experiment: Antibacterial bioassay, inhibition of bacterial growth (MIC); assay type: cell-based, Vibrio aestuarianus (ATCC 35048); conditions: for MIC: Vibrio
Procedure: (§1) Preparation of the compounds: antifouling efficiency of the compounds was assessed towards the inhibition of growth of key bacteria involved in marine and terrestrial surface colonisation. All bioassays were run in six replicates and using two batches of organisms. Compounds were tested at 0.01, 0.1, and 1 µg/mL. 96 well-plates were used and were coated with the compounds. Methanol was used as a carrier solvent and after its evaporation plates were sterilized under UV exposure for 30 min [41].
(§2) Seven strains of marine bacteria i.e., Halomonas aquamarina (ATCC 14400), Polaribacter irgensii (ATCC 700398), Shewanella putrefaciens (ATCC 8071), Roseobacter littoralis (ATCC 495666), Pseudoalteromonas elyakovii (ATCC 700519), Vibrio aestuarianus (ATCC 35048), Vibrio natriegens (ATCC 14058), and three strains of terrestrial bacteria, i.e., Escherichia coli (ATCC 11775), Staphylococcus aureus (ATCC 126000), and Pseudomonas aeruginosa (ATCC 16145) were used to assess the antibacterial potency of the compounds.
(§3) Inhibition of bacterial growth: experiments were run as previously described by Maréchal et al.. 96-well plates containing the compounds were inoculated with the bacteria (2 × 10^8 cells/mL) in LB medium ([…], Sigma, Andover, UK), (supplemented with NaCl (35 g/L) for marine strains), at 30 °C for 48 h. After incubation, the intensity of growth in the presence of the tested compounds and control (media only) was assessed by measurement of the OD 620 nm using a spectrophotometer (Apollo LB912, Berthold Technologies). Results are expressed as minimum inhibitory concentrations (MIC values).

[2] = tested on: Escherichia coli; experiment: as above; assay type: cell-based, Escherichia coli (ATCC 11775); conditions: for MIC: Escherichia coli
Procedure: as §1, §2, §3

[3] = target: T1, DNMT1 (Homo sapiens, UniProt P26358); experiment: In vitro DNMT1 activity inhibition assay; assay type: biochemical; conditions: compounds at 50 µM, 25 ng purified DNMT1, 2 h, 37 °C, three independent experiments
T1 construct: purchased Active Motif
Procedure: DNMT1 activity was measured using in vitro DNMT activity/inhibition assay (Active Motif, Rixensart, Belgium) according to manufacturer’s instructions. All compounds were used at a final 50 µM concentration. The methylation reaction was performed by incubating 25 ng of purified DNMT1 with compounds for 2 h at 37 °C in the presence of 0.01% Triton X-100. The methylated DNA was then recognized by the His-tagged methyl-CpG binding domain protein 2b. The addition of a poly-histidine antibody conjugated to horseradish peroxidase provided a colorimetric readout quantified with a spectrophotometer (SpectraCount, Packard) at the wavelength of 450 nm. Data of DNMT1 activity are reported as percentage of control.

[4] = tested on: Halomonas aquamarina; experiment: Antibacterial bioassay, inhibition of bacterial growth (MIC); assay type: cell-based, Halomonas aquamarina (ATCC 14400); conditions: for MIC Halomonas aquamarina / MIC: 48 h; for MIC toward Halomonas aquamarina: the lowest concentration tested; for MIC: Vreelandella aquamarina, read-out: MIC Halomonas aquamarina
Procedure: as §1, §2, §3

[5] = tested on: Roseobacter littoralis; experiment: as above; assay type: cell-based, Roseobacter littoralis (ATCC 495666); conditions: 48 h; for MIC: read-out: MIC Roseobacter littoralis
Procedure: as §1, §2, §3

[6] = target: T2, Acetylcholinesterase from Electrophorus electricus (Electrophorus electricus, UniProt O42275); experiment: biochemical; assay type: biochemical
T2 construct: purchased Sigma-Aldrich
Procedure: This bioassay was set up after Ellman. This method is the most commonly used to screen compounds against this target. All reagents, buffers, and salts were purchased from Sigma-Aldrich (Saint-Louis, MO, USA). Two buffer solutions were prepared extemporaneously: buffer A (50 mM Tris-HCl pH 8 + 0.1% BSA); and buffer B (50 mM Tris-HCl pH 8 + 0.1 M NaCl + 0.02 M MgCl2.6H2O). Acetylcholinesterase from Electrophorus electricus (EC 3.1.1.7, AChE−0.2 U/mL) was dissolved in buffer A, 5,5′-dithiobis-2-nitrobenzoic acid (DTNB-Ellman’s reagent−3 mM) in buffer B, and acetylthiocholine iodide (ACTI−6 mM) in H2O. Tested compounds were dissolved in DMSO at 10 mg/mL, stored at −20 °C, and subsequently 100 times diluted in H2O before the assay. 10 μL AChE was preincubated for 10 min with 70 μL DTNB and 10 μL compounds solution in 96-well microplates. The enzymatic reaction was initiated with the addition of 10 μL ACTI, a synthetic substrate of AChE. After 30 min at 25 °C, absorbance of the plate was measured at 405 nm using a microplate reader (Tecan Infinite M200). Percentage of inhibition was calculated using the following equation: 100 × (Acontrol − Asample)/(Acontrol − A0), where Acontrol is the average absorbance of the wells in which tested compounds were replaced by water, Asample is the absorbance of the well with tested compound, and A0 the average absorbance of blank wells where AChE was omitted. Products leading to 50% inhibition of AChE were then submitted to dose-response experiments. Serial dilutions of the products were prepared (100, 50, 25, 12.5, 6.25, 3.125, 1.5625, and 0.78125 µg/mL). Enzymatic assay was performed according to the same procedure with 10 µL of each concentration added. IC50 values (concentration leading to 50% inhibition of enzymatic activity) were graphically determined by plotting the percentage of inhibition against the compound concentrations.
Each assay was performed in triplicate and results are expressed as mean values ± SD.

[7] = Degradation of 11-epi-fistularin-3 in acetonitrile/water (+0.1% HCOOH); assay type: physicochemical; conditions: acetonitrile/water (+0.1% HCOOH) 1/1, room temperature, two weeks; HPLC analysis
Excerpt: We then decided to manage the degradation process of epi-fistularin-3 (1) in a less drastic conditions by dissolving it in a mixture of acetonitrile/water (+0.1% HCOOH) 1/1 and stirring at room temperature for two weeks. The reaction mixture was then dried under vacuum and chromatographed.
The reaction mixture was then dried under vacuum and submitted for HPLC analysis.

[8] = tested at 0.01, 0.1 and 1 µg/mL, 30 °C, 48 h, OD 620 nm
[9] = tested at 0.01, 0.1 and 1 µg/mL, 30 °C, OD 620 nm
[10] = mean ± SD, triplicate, 30 min at 25 °C, absorbance 405 nm, read-out: Acetylcholinesterase IC50
[11] = tested at 0.01, 0.1 and 1 µg/mL, 30 °C, 48 h, OD 620 nm, read-out: MIC Vibrio aesturianus
[12] = tested at 0.01, 0.1 and 1 µg/mL, 30 °C, 48 h, OD 620 nm, read-out: MIC Escherichia coli

T2 sequence (O42275 24-633): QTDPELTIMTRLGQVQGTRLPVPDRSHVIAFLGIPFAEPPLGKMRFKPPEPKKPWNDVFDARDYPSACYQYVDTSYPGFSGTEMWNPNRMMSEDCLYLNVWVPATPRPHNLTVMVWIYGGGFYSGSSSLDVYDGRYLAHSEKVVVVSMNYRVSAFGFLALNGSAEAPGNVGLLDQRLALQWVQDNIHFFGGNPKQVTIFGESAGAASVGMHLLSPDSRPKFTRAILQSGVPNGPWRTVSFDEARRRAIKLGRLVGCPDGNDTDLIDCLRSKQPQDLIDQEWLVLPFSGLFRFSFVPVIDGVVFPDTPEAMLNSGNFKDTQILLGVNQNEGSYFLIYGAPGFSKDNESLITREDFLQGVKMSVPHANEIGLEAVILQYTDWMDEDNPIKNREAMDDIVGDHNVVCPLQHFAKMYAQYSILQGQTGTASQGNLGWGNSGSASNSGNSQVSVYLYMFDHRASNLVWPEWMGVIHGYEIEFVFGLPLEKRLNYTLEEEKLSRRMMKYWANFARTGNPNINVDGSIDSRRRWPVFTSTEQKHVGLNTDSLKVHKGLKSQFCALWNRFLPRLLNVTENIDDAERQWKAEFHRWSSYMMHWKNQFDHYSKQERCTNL
T1 sequence (P26358 whole entry): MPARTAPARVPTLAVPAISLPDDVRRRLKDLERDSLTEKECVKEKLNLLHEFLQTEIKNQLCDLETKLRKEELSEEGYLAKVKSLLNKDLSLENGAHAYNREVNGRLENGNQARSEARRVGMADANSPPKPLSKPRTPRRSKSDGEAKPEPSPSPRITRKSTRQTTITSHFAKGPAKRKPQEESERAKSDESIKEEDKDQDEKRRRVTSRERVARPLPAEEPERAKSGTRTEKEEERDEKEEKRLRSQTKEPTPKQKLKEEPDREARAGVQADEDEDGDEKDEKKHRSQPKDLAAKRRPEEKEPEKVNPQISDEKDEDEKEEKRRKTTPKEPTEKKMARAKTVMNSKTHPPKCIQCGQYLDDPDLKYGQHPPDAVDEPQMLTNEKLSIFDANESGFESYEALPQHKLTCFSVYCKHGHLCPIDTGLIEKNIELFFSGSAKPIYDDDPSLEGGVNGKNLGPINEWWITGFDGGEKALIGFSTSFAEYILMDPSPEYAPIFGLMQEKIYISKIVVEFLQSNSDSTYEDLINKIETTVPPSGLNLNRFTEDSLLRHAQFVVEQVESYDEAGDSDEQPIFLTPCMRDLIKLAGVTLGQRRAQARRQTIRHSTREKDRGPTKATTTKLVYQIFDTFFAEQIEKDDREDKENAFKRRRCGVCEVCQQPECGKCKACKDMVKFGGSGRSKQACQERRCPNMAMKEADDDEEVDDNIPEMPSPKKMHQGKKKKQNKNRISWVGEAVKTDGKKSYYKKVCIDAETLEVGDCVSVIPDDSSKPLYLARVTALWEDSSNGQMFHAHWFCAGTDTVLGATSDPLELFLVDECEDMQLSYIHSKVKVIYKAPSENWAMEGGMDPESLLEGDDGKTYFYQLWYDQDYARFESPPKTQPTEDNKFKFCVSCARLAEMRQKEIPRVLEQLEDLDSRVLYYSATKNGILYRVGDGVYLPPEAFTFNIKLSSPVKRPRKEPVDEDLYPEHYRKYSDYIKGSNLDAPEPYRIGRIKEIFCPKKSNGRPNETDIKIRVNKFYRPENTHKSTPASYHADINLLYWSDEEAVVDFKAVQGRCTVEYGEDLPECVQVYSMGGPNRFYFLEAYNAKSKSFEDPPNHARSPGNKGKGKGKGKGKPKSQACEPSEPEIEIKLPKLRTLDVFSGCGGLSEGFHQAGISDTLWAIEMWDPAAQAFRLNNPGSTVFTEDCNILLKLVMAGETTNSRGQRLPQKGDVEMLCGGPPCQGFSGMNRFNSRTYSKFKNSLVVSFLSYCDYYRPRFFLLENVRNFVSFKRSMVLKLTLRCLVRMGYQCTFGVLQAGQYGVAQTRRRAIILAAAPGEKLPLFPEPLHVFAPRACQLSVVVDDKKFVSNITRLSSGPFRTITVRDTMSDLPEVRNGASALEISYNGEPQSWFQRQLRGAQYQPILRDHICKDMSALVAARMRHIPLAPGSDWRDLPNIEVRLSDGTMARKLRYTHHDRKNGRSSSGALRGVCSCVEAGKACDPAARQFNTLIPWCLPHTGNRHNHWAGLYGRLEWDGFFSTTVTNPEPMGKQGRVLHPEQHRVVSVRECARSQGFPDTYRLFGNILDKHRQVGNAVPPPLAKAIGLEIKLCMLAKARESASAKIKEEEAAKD

Molecule	MIC Vibrio aesturianus [1, 8] [µg/mL]	MIC Escherichia coli [2, 8] [µg/mL]	MIC Halomonas aquamarina [4, 9]	MIC Roseobacter littoralis [5, 9] [µg/mL]	IC50 [6, 10] [µM]	MIC [1, 11] [µM]	MIC [2, 12] [µM]	MIC [4, 9] [µM]	MIC [5, 9] [µM]	also measured
COC1=C(Br)C(O)C2(C=C1Br)CC(C(=O)NCCCOc1c(Br)cc(CCNC(=O)C3=NOC4(C=C(Br)C(OC)=C(Br)C4O)C3)cc1Br)=NO2 (stereo not drawn) [11,17-dideoxyfistularin (14), 11,17-dideoxyfistularin-3]	>1	>1	0,01 µg/mL	>1	10 ± 0.3					DNMT1 activity, percentage of control [3]: statistically significant decrease; MIC toward Halomonas aquamarina [4]: 0.01 µg/mL (≈ 0.00924 µM)
COC1=C(Br)[C@H](O)[C@@]2(C=C1Br)CC(C(=O)NCCCOc1c(Br)cc(C(O)CNC(=O)C3=NO[C@]4(C=C(Br)C(OC)=C(Br)[C@@H]4O)C3)cc1Br)=NO2 (stereo partly drawn) [11-deoxyfistularin-3 (13), 11-deoxyfistularin-3]	>1	>1	0,01 µg/mL	>1	> 10					MIC toward Halomonas aquamarina [4]: 0.01 µg/mL (≈ 0.00911 µM)
COC1=C(Br)[C@H](O)[C@@]2(C=C1Br)CC(C(=O)NCCC(O)CNC(=O)C1=NO[C@]3(C=C(Br)C(OC)=C(Br)[C@@H]3O)C1)=NO2 (stereo partly drawn) [11-hydroxyaerothionin (15), 11-hydroxy-aerothionin]	>1	>1	0,01 µg/mL	>1	10 ± 0.3					
COC1=C(Br)[C@H](O)[C@@]2(C=C1Br)CC(C(=O)NCCc1cc(Br)c(OC[C@H](O)CNC(=O)C3=NO[C@]4(C=C(Br)C(OC)=C(Br)[C@@H]4O)C3)c(Br)c1)=NO2 [17-deoxy-11-epi-fistularin-3 (10), 17-deoxy-11(R)-epi-fistularin-3]					> 10	> 1	> 1	0.01 (≈ 0.011 µg/mL)	> 1	
COC1=C(Br)[C@H](O)[C@@]2(C=C1Br)CC(C(=O)NCC(=O)c1cc(Br)c(OC[C@H](O)CNC(=O)C3=NO[C@]4(C=C(Br)C(OC)=C(Br)[C@@H]4O)C3)c(Br)c1)=NO2 [17-oxo-11-epi-fistularin-3 (8), 17-oxo-11-epi-fistularin-3]										MIC ([1]; 48 h, read-out: MIC Vibrio aesturianus): 0.01 µM; MIC ([2]; 48 h, read-out: MIC Escherichia coli): > 1 µM; MIC [4]: > 1 µM; MIC [5]: > 1 µM; IC50 [6]: > 10 µM
COC1=C(Br)[C@H](O)[C@@]2(C=C1Br)CC(C(=O)NC[C@@H](O)COc1c(Br)cc([C@H](O)CNC(=O)C3=NO[C@]4(C=C(Br)C(OC)=C(Br)[C@@H]4O)C3)cc1Br)=NO2 [epi-fistularin-3 (1), 11-epi-fistularin-3]					> 10	> 1	> 1	> 1	> 1	remaining activity at 50 µM ([3]; read-out: DNMT1 activity, percentage of control): ~70%; stability in acidic aqueous acetonitrile (degradation products) [7]: gave agelorin A, agelorin B, and the compounds 2–7
COC1=C(Br)[C@H](O)[C@@]2(C=C1Br)CC(C(=O)NC[C@@H](O)COc1c(Br)cc([C@H](O)CNC(=O)/C(Cc3cc(Br)c(OC)c(Br)c3O)=N/O)cc1Br)=NO2 [suberein-1 (2), suberein-1]					> 10	0.01	> 1	> 1	1 (≈ 1.11 µg/mL)	
COC1=C(Br)[C@H](O)[C@@]2(C=C1Br)CC(C(=O)NC[C@@H](O)c1cc(Br)c(OC[C@H](O)CNC(=O)/C(Cc3cc(Br)c(OC)c(Br)c3O)=N/O)c(Br)c1)=NO2 [suberein-2 (3), suberein-2]					> 10	0.01	0.01	> 1	> 1	MIC ([1]; the lowest concentration tested, read-out: MIC against V. aesturianus): 0.01 µg/mL; MIC ([2]; the lowest concentration tested, read-out: MIC against E. coli): 0.01 µg/mL
agelorin A [agelorin A (11)]	0.1		0.1 µg/mL	0.1						
agelorin B [agelorin B (12)]	>1	>1	>1 µg/mL	>1						
